Results: article PMC3946003, “Protein kinase inhibitor SU6668 attenuates positive regulation of Gli proteins in cancer and multipotent progenitor cells” (Biochimica et Biophysica Acta, 2014)

Tests used:
ULK3 [1] = biological target: T1, ULK3 (Homo sapiens, UniProt Q6PHR2)
T1 sequence (Q6PHR2 1-472): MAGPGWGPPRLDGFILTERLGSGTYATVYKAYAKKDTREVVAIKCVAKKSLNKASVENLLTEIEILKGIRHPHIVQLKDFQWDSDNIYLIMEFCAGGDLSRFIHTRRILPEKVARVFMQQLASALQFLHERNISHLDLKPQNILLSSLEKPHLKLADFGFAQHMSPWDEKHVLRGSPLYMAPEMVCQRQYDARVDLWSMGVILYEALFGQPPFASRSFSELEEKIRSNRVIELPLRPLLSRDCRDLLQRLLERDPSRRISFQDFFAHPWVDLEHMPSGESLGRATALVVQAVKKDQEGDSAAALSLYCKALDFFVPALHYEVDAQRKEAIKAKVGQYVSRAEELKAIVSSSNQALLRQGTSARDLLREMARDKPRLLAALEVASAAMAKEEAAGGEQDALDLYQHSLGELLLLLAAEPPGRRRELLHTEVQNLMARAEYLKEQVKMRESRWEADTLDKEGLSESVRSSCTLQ

ULK3 [2] = biological target: T1, ULK3; experiment: in vitro kinase assay (ULK3 autophosphorylation, […] ATP); Ki calculated from IC50 […]; type: biochemical; parameters: bacterially expressed and purified His-tagged ULK3 protein

Ki (ULK3 [2]) [nM] | SMILES | Km (ULK3 [1]) [µM]
– | Nc1ncnc2c1ncn2[C@@H]1O[C@H](COP(=O)(O)OP(=O)(O)OP(=O)(O)O)[C@@H](O)[C@H]1O [ATP] | 3.2
~200 | Cc1[nH]c(/C=C2\C(=O)Nc3ccccc32)c(C)c1CCC(=O)O [SU6668, (Z)-5-[(1,2-dihydro-2-oxo-3H-indol-3-ylidene)methyl]-2,4-dimethyl-1H-pyrrole-3-propanoic acid] | –
